Laboratory results from paper PMC5681922, “Systemic Responses of Multidrug-Resistant Pseudomonas aeruginosa and Acinetobacter baumannii Following Exposure to the Antimicrobial Peptide Cathelicidin-BF Imply Multiple Intracellular Targets” (Frontiers in Cellular and Infection Microbiology, 2017).
No end group written: not given here.

Tested on: 293FT (human embryonic kidney cells)
Conditions: XTT, 24 h, serum-free DMEM
Procedure: Cell viability was measured using cell proliferation kit II (XTT) (Roche). Cells, including A549 (adenocarcinomic human alveolar basal epithelial cells), 293FT (human embryonic kidney cells) and L929 (murine fibroblast cells), were cultured in Dulbecco's […] (DMEM) supplemented with 10% fetal bovine serum, 100 U penicillin/mL, and 100 μg streptomycin/mL in a humidified 5% CO2 atmosphere at 37°C. After digestion with trypsin, the cells were diluted in serum-free DMEM without phenol red to a final concentration of 2 × 10^5 cell/mL, seeded in 96 well plates (100 μl/well) and cultured overnight until adhesion. Cathelicidin-BF dissolved in serum-free DMEM without phenol red was added to wells, and the plates were incubated for 24 h as previously described. Subsequent procedures were performed according to the kit. Briefly, XTT labeling reagent (sodium 3′-[1-(phenylaminocarbonyl)-3,4-tetrazolium]-bis-4-methoxy-6-nitro) benzene sulfonic acid hydrate) in Roswell Park Memorial Institute (RPMI) 1640 medium without phenol red was mixed with electron-coupling reagent PMS (N-methyl dibenzopyrazine methyl sulfate) at a volume ratio of 50:1 to make the working solution. Fifty microliters of the XTT labeling mixture was added to each well and incubated at the same conditions for 6 h. Absorbance [A492 nm-A690 nm] stands for the quantification of viable cells.
Figure 2 Cytotoxicity of cathelicidin-BF. Hemolysis and cell viability assays were conducted to test the cytotoxicity of cathelicidin-BF to mammalian cells.

KFFRKLKKSVKKRAKEFFKKPRVIGVSIPF [cathelicidin-BF]
concentrations at which proliferation of 293FT cells was inhibited: > 50 µg/mL
